Data taken from patent US12629374B2, “Antimalarial agents” (Merck Sharp & Dohme LLC, priority 2020, dated 2026).
Counter-ions that a name gives are not always drawn. Like-named read-outs stand apart in the source and are kept apart here.

Tested on: ring stage parasites
Assay: Parasite growth potency assay, 72 hours, LDH readout
Format: cell-based
Details: parasite growth measured by LDH assay after 72 hours at 37° C., 0.7% rings, 2% haematocrit, read-out: EC50
Outline: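 Parasite growth was quantified by LDH assay after a −80 °C freeze-thaw. Before that, compound was incubated for 72 h at 37 °C under humidified gas with ring-stage cultures adjusted to 0.7% parasitemia and 2% haematocrit in serum- and albumax-supplemented RPMI-Hepes.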

Structure (SMILES)	EC50 (72 h) [nM]	also measured
CC(C)[C@]1(C)CC(=O)N([C@H](c2ccccc2)c2cccc(C(=O)N[C@@H]3CCOc4ccccc43)c2)C(=N)N1 [Example 9B, [(4S)-1-[(R)-[3-[[(4R)-chroman-4-yl]carbamoyl]phenyl]-phenyl-methyl]-4-isopropyl-4-methyl-6-oxo-hexahydropyrimidin-2-ylidene]ammonium; 2,2,2-trifluoroacetate]	19.2	
CCC1(CC)CC(=O)N([C@H](C)c2cccc(C(=O)N[C@@H]3c4ccccc4OC[C@]3(C)O)c2)C(=N)N1 [Example 205B, [4,4-diethyl-1-[(1R)-1-[3-[[(3R,4R)-3-hydroxy-3-methyl-chroman-4-yl]carbamoyl]phenyl]ethyl]-6-oxo-hexahydropyrimidin-2-ylidene]ammonium; 2,2,2-trifluoroacetate]		EC50 (trifluoroacetate): 1.9 nM
CCC[C@H](c1cccc(C(=O)N[C@@H]2c3ccccc3OC[C@@]2(C)O)c1)N1C(=N)NC(CC)(CC)CC1=O [Example 163A, 3-[(1R)-1-(4,4-diethyl-2-imino-6-oxo-hexahydropyrimidin-1-yl)butyl]-N-[(3S,4R)-3-hydroxy-3-methyl-chroman-4-yl]benzamide]	0.3	
CCC1(CC)CC(=O)N(C(COC)c2cccc(C(=O)N[C@@H]3c4ccccc4OC[C@@]3(C)O)c2)C(=N)N1 (stereo partly drawn) [Example 230, 3-[l-(4,4-diethyl-2-imino-6-oxo-hexahydropyrimidin-1-yl)-2-methoxy-ethyl]-N-[(3S,4R)-3-hydroxy-3-methyl-chroman-4-yl]benzamide]		EC50: 0.84 nM
CCC1(CC)CC(=O)N(C(c2cncnc2)c2cccc(C(=O)NC3CC(C)(C)Oc4ccccc43)c2)C(=N)N1 (single isomer, unassigned) [Example 92A, 3-[(4,4-diethyl-2-imino-6-oxo-hexahydropyrimidin-1-yl)-pyrimidin-5-yl-methyl]-N-(2,2-dimethylchroman-4-yl)benzamide]		EC50: 25.5 nM
CCC1(CC)CC(=O)N(C(CC(OC)C(F)(F)F)c2cccc(C(=O)N[C@@H]3c4ccccc4C[C@H]3O)c2)C(=N)N1 (single isomer, unassigned) [Example 238A]		EC50: 1.94 nM
CCC1(CC)CC(=O)N(Cc2cccc(C(=O)N[C@H]3C[C@H](C(F)(F)F)Oc4ccccc43)c2)C(=N)N1 (stereo in doubt) [Example 91A, [4,4-diethyl-6-oxo-1-[[3-[[2-(trifluoromethyl)chroman-4-yl]carbamoyl]phenyl]methyl]hexa-hydropyrimidin-2-ylidene]ammonium; 2,2,2-trifluoroacetate]		EC50 (trifluoroacetate): 1.9 nM
CCC12CCCCCCC3COc4ccccc4C3NC(=O)c3cccc(c3)CN(C(=N)N1)C(=O)C2 (single isomer, unassigned) [Example 120A, (26-ethyl-8,29-dioxo-17-oxa-1,9,27-triazapentacyclo[24.2.2.13,7.010,19. 011,16]hentriaconta-3,5,7(31),11(16),12,14-hexaen-28-ylidene)ammonium; 2,2,2-trifluoroacetate]		EC50: 70.3 nM
CCC1(CC)CC(=O)N([C@H](CCOC)c2cccc(C(=O)NC3CC(C)(C)Oc4ccccc43)c2)C(=N)N1 (stereo in doubt) [Example 72B, [1-[1-[3-[(2,2-dimethylchroman-4-yl)carbamoyl]phenyl]-3-methoxy-propyl]-4,4-diethyl-6-oxo-hexahydropyrimidin-2-ylidene]ammonium; 2,2,2-trifluoroacetate]	0.3	
CCC1(CC)CC(=O)N(Cc2cccc(C(=O)N[C@H]3c4ccccc4OCC3(C)O)c2)C(=N)N1 (stereo in doubt) [Example 131B, 3-[(4,4-diethyl-2-imino-6-oxo-hexahydropyrimidin-1-yl)methyl]-N-(3-hydroxy-3-methyl-chroman-4-yl)benzamide]	20.2	
CCC1(CC)CC(=O)N([C@H](CCOC)c2cccc(C(=O)N[C@@H]3c4ccccc4C4(CC4)[C@H]3O)c2)C(=N)N1 [Example 191A, [4,4-diethyl-1-[(1R)-1-[3-[(2′-hydroxyspiro[cyclopropane-1,3′-indane]-1′-yl)carbamoyl]phenyl]-3-methoxy-propyl]-6-oxo-hexahydropyrimidin-2-ylidene]ammonium; 2,2,2-trifluoroacetate]	0.7	
CCC1(CC)CC(=O)N([C@@H](c2cccc(C(=O)N[C@@H]3c4ccccc4C[C@H]3O)c2)C23CC(C2)C3)C(=N)N1 [Example 34, [1-[1-bicyclo[1.1.1]pentanyl-[3-[[(1R,2R)-2-hydroxyindan-1-yl]carbamoyl]phenyl]methyl]-4,4-diethyl-6-oxo-hexahydropyrimidin-2-ylidene]ammonium; 2,2,2-trifluoroacetate]	0.5	
CCC1(CC)CC(=O)N(Cc2cc(C(=O)N[C@H]3C[C@H](C(F)(F)F)Oc4ccccc43)ccn2)C(=N)N1 [Example 134, [4,4-diethyl-6-oxo-1-[[4-[[(2R,4S)-2-(trifluoromethyl)chroman-4-yl]carbamoyl]pyridin-1-ium-2-yl]methyl]hexahydropyrimidin-2-ylidene]ammonium; 2,2,2-trifluoroacetate]	8.6	
COCC[C@H](c1cccc(C(=O)N[C@H]2CC(C)(C)Oc3ccccc32)c1)N1C(=N)NC(C)(C)CC1=O [Example 177, [1-[(1R)-1-[3-[[(4S)-2,2-dimethylchroman-4-yl]carbamoyl]phenyl]-3-methoxy-propyl]-4,4-dimethyl-6-oxo-hexahydropyrimidin-2-ylidene]ammonium; 2,2,2-trifluoroacetate]	2.1	
CCC1(COC)CC(=O)N(Cc2cccc(C(=O)N[C@H]3CC(C)(C)Oc4ccccc43)c2)C(=N)N1 (stereo partly drawn) [Example 98B, [1-[[3-[[(4S)-2,2-dimethylchroman-4-yl]carbamoyl]phenyl]methyl]-4-ethyl-4-(methoxymethyl)-6-oxo-hexahydropyrimidin-2-ylidene]ammonium; 2,2,2-trifluoroacetate]		EC50 (trifluoroacetate): 8.1 nM
C#CCC[C@H](c1cccc(C(=O)N[C@H]2CC(C)(C)Oc3ccccc32)c1)N1C(=N)NC(CC)(CC)CC1=O [Example 214C, 3-[(1R)-1-(4,4-diethyl-2-imino-6-oxo-hexahydropyrimidin-1-yl)pent-4-ynyl]-N-(2,2-dimethylchroman-4-yl)benzamide]	0.4	
CCC1(CC)CC(=O)N([C@@H](c2cccc(C(=O)N[C@@H]3c4ccccc4C[C@H]3O)c2)c2cccc(S(C)(=O)=O)c2)C(=N)N1 [Example 124A, [4,4-diethyl-1-[[3-[[(1R,2R)-2-hydroxyindan-1-yl]carbamoyl]phenyl]-(3-methylsulfonylphenyl)methyl]-6-oxo-hexahydropyrimidin-2-ylidene]ammonium; 2,2,2-trifluoroacetate]	9.9	
CCC1(CC)CC(=O)N([C@@H](c2cccnc2)c2cccc(C(=O)N[C@@H]3c4ccccc4C[C@H]3O)c2)C(=N)N1 [Example 109B, [4,4-diethyl-1-[[3-[[(1R,2R)-2-hydroxyindan-1-yl]carbamoyl]phenyl]-pyridin-1-ium-3-yl-methyl]-6-oxo-hexahydropyrimidin-2-ylidene]ammonium; 2,2,2-trifluoroacetate]	22.9	
CCC1(CC)CC(=O)N([C@H](c2cccc(C(=O)N[C@H]3CCOc4ccccc43)c2)c2cncs2)C(=N)N1 (single isomer, unassigned) [Example 85B, trifluoroacetate]	2.1	
C[C@H](c1cccc(C(=O)N[C@H]2CCOc3ccccc32)c1)N1C(=N)N[C@@](CC2CC2)(c2ccccc2)CC1=O [Example 7, [(4R)-1-[1-[3-[[(4S)-chroman-4-yl]carbamoyl]phenyl]ethyl]-4-(cyclopropylmethyl)-6-oxo-4-phenyl-hexahydropyrimidin-2-ylidene]ammonium; 2,2,2-trifluoroacetate]	39.2	
CCC1(CC)CC(=O)N(Cc2cccc(C(=O)N[C@H]3CC(c4ccccc4)Oc4ccccc43)c2)C(=N)N1 (stereo in doubt) [Example 218A, [4,4-diethyl-6-oxo-1-[[3-[(2-phenylchroman-4-yl)carbamoyl]phenyl]methyl]hexa-hydropyrimidin-2-ylidene]ammonium; 2,2,2-trifluoroacetate]		EC50 (trifluoroacetate): 55 nM
CCC1(CC)CC(=O)N(Cc2cccc(C(=O)NC3(C)CCOc4ccccc43)c2)C(=N)N1 (stereo not drawn) [Example 113, 3-[(4,4-diethyl-2-imino-6-oxo-hexahydropyrimidin-1-yl)methyl]-N-(4-methylchroman-4-yl)benzamide]	96.1	
CCC1(CC)CC(=O)N(C(COC)c2cccc(C(=O)N[C@@H]3c4ccccc4OC(C)(C)[C@H]3O)c2)C(=N)N1 (stereo partly drawn) [Example 232, 3-[l-(4,4-diethyl-2-imino-6-oxo-hexahydropyrimidin-1-yl)-2-methoxy-ethyl]-N-[(3S,4R)-3-hydroxy-2,2-dimethyl-chroman-4-yl]benzamide]	0.32	
CC[C@]1(C)CC(=O)N([C@H](CCOC)c2cccc(C(=O)NC3c4ccccc4OC(C)(C)C3(C)O)c2)C(=N)N1 (single isomer, unassigned) [Example 234B]		EC50: 74.8 nM
CCC1(CC)CC(=O)N([C@H](c2ccccc2)c2cccc(C(=O)N[C@H]3CCOc4ccccc43)c2)C(=N)N1 [Example 4A, [1-[[3-[[(4S)-chroman-4-yl]carbamoyl]phenyl]-phenyl-methyl]-4,4-diethyl-6-oxo-hexahydropyrimidin-2-ylidene]ammonium; 2,2,2-trifluoroacetate]	0.4	
CCC1(CC)CC(=O)N(Cc2cncc(C(=O)NC3CC(C)(C)Oc4ccccc43)c2)C(=N)N1 (stereo not drawn) [Example 82, [1-[[5-[(2,2-dimethylchroman-4-yl)carbamoyl]pyridin-1-ium-3-yl]methyl]-4,4-diethyl-6-oxo-hexahydropyrimidin-2-ylidene]ammonium; 2,2,2-trifluoroacetate]		EC50 (trifluoroacetate): 39.4 nM
CCC1(C)CC(=O)N([C@H](CCOC)c2cccc(C(=O)N[C@@H]3c4ccccc4CC3(C)O)c2)C(=N)N1 (stereo partly drawn) [Example 196B, 3-[(1R)-1-(4-ethyl-2-imino-4-methyl-6-oxo-hexahydropyrimidin-1-yl)-3-methoxy-propyl]-N-[(1R,2S)-2-hydroxy-2-methyl-indan-1-yl]benzamide]		EC50: 3.1 nM
